Measurements as given in patent US20230364032A1, “USE OF 2-HOBA TO TREAT ATHEROSCLEROSIS” (Vanderbilt University, priority 2020, published 2023).
Where “and” joins values, the source holds several entries; their conditions need not be identical. Equal entries are not always repeated. Entries after “also recorded” stand apart in the source; their conditions may differ.

Key:
Type in all cases: in vivo, mouse
MDA = assay: Plasma MDA content by TBARS assay; conditions: Ldlr−/− mice, western diet 16 weeks; versus 4-HOBA or vehicle
Description: FIG. 21A-D show the effects of 2-HOBA on plasma and LDL MDA adducts in hypercholesterolemic Ldlr^−/− mice. (20A) The MDA content in plasma from Ldlr^−/− mice consuming a Western diet for 16 weeks and treated with 2-HOBA, 4-HOBA, or vehicle was measured by TBARS Assay(*p<0.05, **p<0.01). (20B) The levels of MDA adducts were measured from LDL isolated from the Ldlr^−/− mice by ELISA. N=10 per group, ***p<0.001. (20C) LDL was isolated from control and FH subjects (n=6) pre and post LDL apheresis and the MDA adduct content was measured by ELISA. (20D) LDL was isolated from 2-HOBA, 4-HOBA, or vehicle treated hypercholesterolemic Ldlr^−/− mice. WT peritoneal macrophages were incubated for 24 hrs with the LDL and the cellular cholesterol content was measured as described in methods. (20A-D) One-way ANOVA with Bonferroni's post hoc test).

cyclooxygenase (COX) = assay: Urinary prostaglandin metabolites (LC/MS)
Description: The urine samples were collected in metabolic cages with 2 mice per cage after 12 weeks of treatment with 2-HOBA or water. The contents of PGE-M (20A), tetranor PGD-M (20B), 2,3-dinor-6-keto-PGF1 (20C) and 11-dehydro TxB2 (20D) were analyzed by LC/MS/MS. (20A-20D) Mean±SEM shown for each, N.S., Mann-Whitney Test.
Concentrations of PGE-M, tetranor PGD-M, 11-dehydro-TxB^2 (TxB-M) and PGI-M in urine were measured in the Eicosanoid Core Laboratory at Vanderbilt University Medical Center. Urine (1 mL) was acidified to pH 3 with HCl. [^2H4]-2,3-dinor-6-keto-PGF1a (internal standard for PGI-M quantification) and [^2H4]-11-dehydro-TxB2 were added, and the sample was treated with methyloxime HCl to convert analytes to the O-methyloxime derivative. The derivatized analytes were extracted using a C-18 Sep-Pak (Waters Corp. Milford, MA USA) and eluted with ethyl acetate as previously described^68. A [^2H6]—O-methyloxime PGE-M deuterated internal standard was then added for PGE-M and PGD-M quantification. The sample was dried under a stream of dry nitrogen at 37° C. and then reconstituted in 75 μL mobile phase A for LC/MS analysis.
LC was performed on a 2.0×50 mm, 1.7 μm particle Acquity BEH C18 column (Waters Corporation, Milford, MA, USA) using a Waters Acquity UPLC. […]
Urinary creatinine levels are measured using a test kit from Enzo Life Sciences. […]

[1] = test system: atherosclerotic lesions of Ldlr−/− mice; assay: Lesion apoptosis (TUNEL) and efferocytosis
Description: Cell apoptosis was induced as indicated and detected by fluorescent labeled Annexin V staining and quantitated by either Flow Cytometry (BD 5 LSRII) or counting Annexin V positive cells in images captured under a fluorescent microscope. The apoptotic cells in atherosclerotic lesions were measured by TUNEL staining of cross-sections of atherosclerotic proximal aortas as previously described^30. The TUNEL positive cells not associated with live macrophages were considered free apoptotic cells and macrophage-associated apoptotic cells were considered phagocytosed as a measure of lesion efferocytosis as previously described^30.

MDA-protein adducts = assay: Proximal aortic lesion MDA adducts by immunofluorescence; conditions: Ldlr−/− mice
Excerpt: The extent of atherosclerosis was examined both Oil-Red-O-stained cross-sections of the proximal aorta and by en face analysis^30. Briefly, cryosections of 10-micron thickness were cut from the region of the proximal aorta starting from the end of the aortic sinus and for 300 μm distally, according to the method of Paigen et al.^62. The Oil red-O staining of 15 serial sections from the root to ascending aortic region were used to quantify the Oil red-O-positive staining area per mouse. The mean from the 15 serial sections was applied for the aortic root atherosclerotic lesion size per mouse using the KS300 imaging system (Kontron Elektronik GmbH) as described^63, 64, 65. All other stains were done using sections that were 40 to 60 μm distal of the aortic sinus. For each mouse, 4 sections were stained and quantitation was done on the entire cross section of all 4 sections. For immunofluorescence staining, 5 μm cross-sections of the proximal aorta were fixed in cold acetone (Sigma), blocked in Background Buster (Innovex), incubated with indicated primary antibodies (MDA and CD68) at 4° C. for overnight. After incubation with fluorescent labeled secondary antibodies at 37 C for 1 hour, the nucleus was counterstained with Hoechst. Images were captured with a fluorescence microscope (Olympus IX81) and SlideBook 6 (Intelligent-Image) software and quantitated using ImageJ software (NIH)^66.

## NCc1ccccc1O [2-HOBA, 2-hydroxybenzylamine]
MDA
  plasma levels of MDA: decreased
Cyclooxygenase (COX); Ldlr−/− mice, compared to the vehicle control
  levels of major urinary prostaglandin metabolites (2,3-dinor-6-keto-PGF1, 11-dehydro TxB2, PGE-M, PGD-M): no significant differences; also recorded: did not impact
Cyclooxygenase (COX); mice
  inhibition of COX in vivo: not significantly inhibiting COX
[1]; Ldlr−/− mice
  efferocytosis and cell death in atherosclerotic lesions: enhanced efferocytosis; also recorded: prevents cell death and increases efferocytosis
[1]; Ldlr−/− mice, compared to 4-HOBA
  reduction of number of TUNEL positive cells in proximal aortic lesions: 72.4%
[1]; Ldlr−/− mice, compared to vehicle
  reduction of number of TUNEL positive cells in proximal aortic lesions: 72% and 72.9%
[1]; lesions of mice treated with 4-HOBA versus 2-HOBA
  increase of TUNEL positive cells not associated with macrophages: 2.0 fold
[1]; lesions of mice treated with vehicle versus 2-HOBA
  increase of TUNEL positive cells not associated with macrophages: 1.9 fold
MDA-protein adducts; compared to 4-HOBA
  reduction of proximal aortic MDA adduct levels (immunofluorescence): 66.8%
MDA-protein adducts; compared to vehicle alone
  reduction of proximal aortic MDA adduct levels (immunofluorescence): 68.5%
